Series [1] relates to mouse peritoneal macrophages. Description: Suppression of foaming of macrophages (cholesterol ester synthesis) in vitro. The conditions noted are these: 5 μM, 16 hours, relative to control as 100%, smaller value = more potent suppression; for activity at 5 µM: Mus musculus, Peritoneal macrophage, read-out: Rate of CE synthesis (%). It counts as cell-based, mouse (female ICR). As to the method:
Activity of the compounds of the present invention for suppressing the foaming of macrophages
(§1) Activity of the compounds of the present invention for suppressing the foaming of macrophages, which triggers arterial sclerosis, was examined by an in vitro experiment using mouse peritoneal macrophages. 15-Week old female ICR mice (Nippon SLC) were subjected to bleeding by cutting off their cervicalis, and Hanks buffer (Nippon Seiyaku) was injected into their peritoneal cavities. After abdominal regions of the mice were massaged, the buffer was recovered immediately, and then the resulting buffer was centrifuged at 1,000 r.p.m. for five minutes to collect peritoneal macrophages. Then, the collected macrophages were suspended in GTI medium (Wako Pure Chemical Industries), and inoculated onto a 24-well microtiter plate. After the macrophages were cultivated at 37° C. under 5% CO2 for two hours, the culture medium was changed with Dulbecco Modified Eagle Medium (MEM, Nippon Seiyaku). The macrophages were further cultivated at 37° C. under 5% CO2 for 16 hours, and then a test compound and liposomes were added to the culture.
1) Test compound: dissolved in DMSO (Wako Pure Chemical Industries),
PC: Phosphatidylcholine (Funakoshi);
PS: Phosphatidylserine (Funakoshi);
DCP: Dicetylphosphate (Funakoshi);
CHOL: Cholesterol (Sigma)
(§2) After cultivation was further continued at 37° C. under 5% CO2 for 16 hours, lipid fraction was extracted with chloroform and methanol. The extracted lipid fraction was dissolved in isopropyl alcohol, and the produced cholesterol ester (CE) was quantified by an enzymatic luminescence method. Yield of the cholesterol ester was calculated as a relative ratio based on yield of the control as 100% where no test compound was added. Cytotoxicity was examined microscopically by observing morphological alteration of cells. In the tables, compound numbers correspond to those of the compounds of present invention described in the examples.

The subject of series [2] is mouse peritoneal macrophages. Put plainly: Cytotoxicity examined microscopically (morphological alteration of cells). It counts as cell-based, mouse (female ICR). The settings on record: 5 μM, observed microscopically. As to the method:
as §1, §2

SMILES strings stand for the structures. Like-named read-outs stand apart in the source and are kept apart here.

With `Cc1cc(O)nc(SCCCCCSc2nc3ccccc3[nH]2)n1` [Compound B52], the activity at 5 µM in series [1] (Table 4) came to 49%. Further, the Cytotoxicity entry in series [2] (Table 4) is on record as “Not observed”.
For the compound `c1ccc2[nH]c(SCCCCCSc3nc4ccccc4s3)nc2c1` [Compound A33, 1-(2'-benzimidazolylthio)-5-(2"-benzothiazolylthio)pentane], the activity at 5 µM in series [1] (Table 3) is 13%. Moreover, the Cytotoxicity entry in series [2] (Table 3) is listed as “Not observed”.
Regarding `c1ccc(-c2cnc(SCCCCCSc3nc4ccccc4[nH]3)n2-c2ccccc2)cc1` [Compound B4], in series [1] (Table 4), the activity at 5 µM came out at 47%. For the same compound, the Cytotoxicity result in series [2] (Table 4) is “Not observed”.
On to `CCC(=O)n1c(SCCCCCSc2ccccn2)nc2ccccc21` [Compound B65, 5-(2'-(1'-propionylbenzimidazolyl)thio)-1-(2"-pyridylthio)pentane], for which the activity at 5 µM in series [1] (Table 4) stood at 22%. Also, in series [2] (Table 4), the Cytotoxicity entry is recorded as “Not observed”.
For the compound `CCOc1ccc2nc(SCCCCCSc3nc4ccccc4[nH]3)sc2c1` [Compound A35, 1-(2'-benzimidazolylthio)-5-(2"-(6"-ethoxybenzothiazolyl)thio)pentane], in series [1] (Table 3), the activity at 5 µM was 25%. Also, the Cytotoxicity result in series [2] (Table 3) was “Not observed”.
Regarding `Cc1ccc2[nH]c(SCCCCCSc3nc4cc(Cl)ccc4[nH]3)nc2c1` [Compound A3, 1-(2-(5'-chlorobenzimidazolyl)thio)-5-(2"-(5"-methylbenzimidazolyl)thio)pentane], the activity at 5 µM in series [1] (Table 3) was determined as 36%. Also, the Cytotoxicity entry in series [2] (Table 3) was “Not observed”.
Regarding `CSc1nnc(SCCCCCSc2nc3ccccc3[nH]2)s1` [Compound B19], the activity at 5 µM in series [1] (Table 4) amounted to 21%. Moreover, the Cytotoxicity entry in series [2] (Table 4) is on record as “Not observed”.
With `Cc1cc2nc(SCCCCCSc3nc4ccccc4o3)[nH]c2cc1C` [Compound A38], the activity at 5 µM in series [1] (Table 3) is 16%. Moreover, the Cytotoxicity result in series [2] (Table 3) is reported as “Not observed”.
In the case of `c1ccc2nc(SCCCCCSc3nc4ccccc4[nH]3)ccc2c1` [Compound B57], the activity at 5 µM in series [1] (Table 4) worked out at 26%. Besides, the Cytotoxicity entry in series [2] (Table 4) was “Not observed”.
In the case of `Cc1cc2nc(CCCCCSc3nc4ccccc4[nH]3)[nH]c2cc1C` [Compound A28, 2-(5-(2'-benzimidazolylthio)pentyl)-5,6-dimethylbenzimidazole], in series [1] (Table 3), the activity at 5 µM was determined as 49%. The Cytotoxicity result in series [2] (Table 3) was “Not observed”.
Take `Cc1ccc2[nH]c(SCCCCCCSc3nc4ccccc4[nH]3)nc2c1` [Compound A19, 1-(2'-(5'-methylbenzimidazolyl)thio)-6-(2"-benzimidazolylthio)hexane]: in series [1] (Table 3), the activity at 5 µM came to 54%. For the same compound, the Cytotoxicity entry in series [2] (Table 3) was “Not observed”.
Consider `Cc1ccc2[nH]c(SCCCCSc3nc4ccccc4[nH]3)nc2c1` [Compound A18, 1-(2'-(5'-methylbenzimidazolyl)thio)-4-(2"-benzimidazolylthio)butane], for which, in series [1] (Table 3), the activity at 5 µM turned out to be 52%. In addition, the Cytotoxicity result in series [2] (Table 3) was “Not observed”.
As for `Cn1nnnc1SCCCCCSc1nc2ccccc2[nH]1` [Compound B10], the activity at 5 µM in series [1] (Table 4) came to 32%. Moreover, the Cytotoxicity entry in series [2] (Table 4) was “Not observed”.
With `Oc1ccnc(SCCCCCSc2nc3ccccc3[nH]2)c1` [Compound B53], the activity at 5 µM in series [1] (Table 4) worked out at 52%. Besides, the Cytotoxicity result in series [2] (Table 4) was “Not observed”.
In the case of `c1ccc(CCCCCSc2nc3ccccc3[nH]2)nc1` [Compound B43, 1-(2'-benzimidazolylthio)-5-(2"-pyridyl)pentane], in series [1] (Table 4), the “Rate of CE synthesis (%)” value was found to be 12%. For the same compound, in series [2] (Table 4), the Cytotoxicity result is recorded as “Not observed”.
`O=[N+]([O-])c1ccc2[nH]c(CCCCCSc3ccccn3)nc2c1` [Compound B46]: the activity at 5 µM in series [1] (Table 4) was found to be 36%. In series [2] (Table 4), the Cytotoxicity entry was “Not observed”.
As for `CCC(=O)Nc1ccc2[nH]c(SCCCCCSc3ccccn3)nc2c1` [Compound B37], in series [1] (Table 4), the activity at 5 µM came to 20%. In addition, the Cytotoxicity entry in series [2] (Table 4) is recorded as “Not observed”.
With `c1ccc2[nH]c(SCCCCCSc3ncnc4nc[nH]c34)nc2c1` [Compound B59], in series [1] (Table 4), the activity at 5 µM turned out to be 9.2%. Besides, the Cytotoxicity result in series [2] (Table 4) is on record as “Not observed”.
Regarding `c1ccc(SCCCCSc2nc3ccccc3[nH]2)nc1` [Compound B29], the activity at 5 µM in series [1] (Table 4) is 14%. For the same compound, the Cytotoxicity result in series [2] (Table 4) was “Not observed”.
For `Cc1ccc2[nH]c(SCCOCCOCCSc3nc4ccccc4[nH]3)nc2c1` [Compound A22], the activity at 5 µM in series [1] (Table 3) worked out at 20%. Besides, the Cytotoxicity result in series [2] (Table 3) is given as “Not observed”.
Regarding `c1ccc2[nH]c(SCCCCCSc3ccncc3)nc2c1` [Compound B28], in series [1] (Table 4), the activity at 5 µM stood at 7.6%. In addition, the Cytotoxicity result in series [2] (Table 4) is recorded as “Not observed”.
For `Cc1ccc2[nH]c(SCCCCCSc3nc4ccccc4[nH]3)nc2c1` [Compound A1, 1-(2'-(5'-methylbenzimidazolyl)thio)-5-(2"-benzimidazolylthio)pentane], the activity at 5 µM in series [1] (Table 3) turned out to be 41%. For the same compound, the Cytotoxicity entry in series [2] (Table 3) is on record as “Not observed”.
`Clc1cc2nc(SCCCCCCSc3nc4ccccc4[nH]3)[nH]c2cc1Cl` [Compound A12, 1-(2'-(5',6'-dichlorobenzimidazolyl)thio)-6-(2"-benzimidazolylthio)hexane]: the activity at 5 µM in series [1] (Table 3) came to 42%. Further, the Cytotoxicity entry in series [2] (Table 3) is “Not observed”.
Regarding `c1ccc(-n2nnnc2SCCCCCSc2nc3ccccc3[nH]2)cc1` [Compound B12], the activity at 5 µM in series [1] (Table 4) came to 14%. In series [2] (Table 4), the Cytotoxicity result is reported as “Not observed”.
Consider `c1ccc(SCCCCCSc2nc3ccccc3[nH]2)nc1` [Compound B30, 5-(2'-Benzimidazolylthio)-1-(2"-pyridylthio)pentane], for which the activity at 5 µM in series [1] (Table 4) was 9%. Besides, the Cytotoxicity entry in series [2] (Table 4) is “Not observed”.
For `c1ccc(SCCCCCCSc2nc3ccccc3[nH]2)nc1` [Compound B31], the activity at 5 µM in series [1] (Table 4) was 27%. For the same compound, in series [2] (Table 4), the Cytotoxicity entry is given as “Not observed”.
In the case of `CC(=O)Nc1nnc(SCCCCCSc2nc3ccccc3[nH]2)n1C` [Compound B9], in series [1] (Table 4), the activity at 5 µM was found to be 35%. Further, the Cytotoxicity entry in series [2] (Table 4) is “Not observed”.
For `Cn1ccnc1SCCCCCSc1nc2ccccc2[nH]1` [Compound B2], the activity at 5 µM in series [1] (Table 4) was 16%. Also, the Cytotoxicity result in series [2] (Table 4) was “Not observed”.
On to `Cc1ccnc(SCCCCCSc2nc3ccccc3[nH]2)c1` [Compound B41], for which the activity at 5 µM in series [1] (Table 4) was 19%. In series [2] (Table 4), the Cytotoxicity result is recorded as “Not observed”.
Regarding `CCC(=O)n1c(CCCCCSc2nc3ccccc3n2C(=O)CC)nc2ccccc21` [Compound A24, 1-propionyl-2-(5-(2'-(1-propionylbenzimidazolyl)thio)pentyl)benzimidazole], the activity at 5 µM in series [1] (Table 3) turned out to be 40%. For the same compound, the Cytotoxicity result in series [2] (Table 3) is “Not observed”.
With `Cc1cc(C)nc(SCCCCCSc2nc3ccccc3[nH]2)n1` [Compound B51], the activity at 5 µM in series [1] (Table 4) was 24%. The Cytotoxicity result in series [2] (Table 4) is “Not observed”.
Take `c1ccc2[nH]c(SCCCCCSc3nnc[nH]3)nc2c1` [Compound B5]: in series [1] (Table 4), the activity at 5 µM came out at 14%. The Cytotoxicity result in series [2] (Table 4) was “Not observed”.
As for `c1ccc2[nH]c(CCCCCCCSc3nc4ccccc4[nH]3)nc2c1` [Compound A31, 2-(7-(2'-benzimidazolylthio)heptyl)benzimidazole], the activity at 5 µM in series [1] (Table 3) worked out at 53%. For the same compound, in series [2] (Table 3), the Cytotoxicity result is “Not observed”.
`CN(C)C(=O)c1ccc2[nH]c(SCCCCCSc3ccccn3)nc2c1` [Compound B39]: the activity at 5 µM in series [1] (Table 4) was determined as 28%. Also, the Cytotoxicity result in series [2] (Table 4) is recorded as “Not observed”.
`CC(=O)Nc1nnc(SCCCCCSc2nc3ccccc3[nH]2)s1` [Compound B17]: the activity at 5 µM in series [1] (Table 4) was determined as 18%. Besides, in series [2] (Table 4), the Cytotoxicity entry is reported as “Not observed”.
As to `c1ccc2[nH]c(SCCCCCSc3ncc[nH]3)nc2c1` [Compound B1, 1-(2'-benzimidazolylthio)-5-(2"-imidazolylthio)pentane], the activity at 5 µM in series [1] (Table 4) was 41%. For the same compound, the Cytotoxicity result in series [2] (Table 4) is on record as “Not observed”.
In the case of `c1ccc2[nH]c(CCCCCCCCCCCSc3nc4ccccc4[nH]3)nc2c1` [Compound A32, 2-(11-(2'-benzimidazolylthio)undecyl)benzimidazole], the activity at 5 µM in series [1] (Table 3) is 62%. Moreover, the Cytotoxicity result in series [2] (Table 3) is given as “Not observed”.
Regarding `O=[N+]([O-])c1ccc2[nH]c(CCCCCSc3nc4ccccc4[nH]3)nc2c1` [Compound A30], the activity at 5 µM in series [1] (Table 3) amounted to 52%. The Cytotoxicity entry in series [2] (Table 3) is “Not observed”.
Consider `Oc1ncnc2[nH]c(SCCCCCSc3nc4ccccc4[nH]3)nc12` [Compound B14], for which, in series [1] (Table 4), the activity at 5 µM was found to be 48%. In addition, the Cytotoxicity entry in series [2] (Table 4) is listed as “Not observed”.
`Cc1ccnc(SCCCCCSc2nc3ccccc3[nH]2)n1` [Compound B50]: the activity at 5 µM in series [1] (Table 4) is 22%. Further, the Cytotoxicity entry in series [2] (Table 4) was “Not observed”.
On the same counts, the results for `CN(C)CCSc1nnc(SCCCCCSc2nc3ccccc3[nH]2)s1` [Compound B20] are 24% and “Not observed”.

Values taken from patent US6174907A, “Benzimidazole compounds containing 1,2,4-triazole ring, and compositions and methods of use containing the same” (Fuji Photo Film Co., Ltd., priority 1995, dated 2001).
